The source made the active and inactive calls.
How the values were obtained:
[1] = biological target: Glucose-6-phosphate 1-dehydrogenase (Homo sapiens, UniProt P11413); assay: human G6PD enzyme inhibitors, dose response, selectivity assay for P. falciparum G6PD inhibitor project, biochemical, fluorescence (AID 504792); type: functional
[2] = cytotoxicity in KRAS-transformed pancreatic duct cells, primary screen, cell-based, fluorescence, HTS (AID 431); type: functional; details: Homo sapiens;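 also: cell line used: HPDE-C7K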
[3] = biological target: T1, Corticotropin-releasing factor receptor 2/Corticotropin-releasing factor-binding protein (Homo sapiens, UniProt P24387+Q13324); assay: activators of CRF receptor 2 with binding protein – uHTS hits, confirmation (AID 602473); type: functional; details: read-out: EC50_Mean
T1 sequence (Q13324 whole entry): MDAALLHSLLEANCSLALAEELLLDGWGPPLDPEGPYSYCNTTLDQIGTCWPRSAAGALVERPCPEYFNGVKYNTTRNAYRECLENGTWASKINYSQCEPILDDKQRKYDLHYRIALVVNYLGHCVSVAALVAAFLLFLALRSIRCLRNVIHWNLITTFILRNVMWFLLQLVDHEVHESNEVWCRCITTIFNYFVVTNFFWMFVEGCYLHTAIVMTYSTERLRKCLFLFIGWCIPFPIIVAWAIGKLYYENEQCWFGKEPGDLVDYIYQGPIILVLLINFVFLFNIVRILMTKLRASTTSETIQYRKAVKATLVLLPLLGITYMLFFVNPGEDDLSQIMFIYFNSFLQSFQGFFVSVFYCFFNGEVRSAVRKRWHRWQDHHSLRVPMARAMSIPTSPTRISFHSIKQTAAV
T1 sequence (P24387 whole entry): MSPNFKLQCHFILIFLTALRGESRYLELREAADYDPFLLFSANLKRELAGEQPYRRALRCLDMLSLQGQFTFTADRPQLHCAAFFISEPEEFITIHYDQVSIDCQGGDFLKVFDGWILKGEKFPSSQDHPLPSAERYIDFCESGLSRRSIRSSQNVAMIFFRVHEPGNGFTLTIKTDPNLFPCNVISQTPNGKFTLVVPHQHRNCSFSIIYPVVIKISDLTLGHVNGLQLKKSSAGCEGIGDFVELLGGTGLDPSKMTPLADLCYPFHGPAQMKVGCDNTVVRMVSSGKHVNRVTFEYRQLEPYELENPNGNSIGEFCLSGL

[4] = biological target: T1, Corticotropin-releasing factor receptor 2/Corticotropin-releasing factor-binding protein; assay: Dose Response confirmation of uHTS hits for small molecule antagonists of the CRF-binding protein and CRF-R2 receptor complex.; type: functional; details: read-out: IC50_Mean
[5] = cytotoxicity in HPDE-C7 cells, cell-based, fluorescence, HTS (AID 430); type: functional; details: Homo sapiens
HEK293 = assay: inhibitors of LMP1-driven NF-kB reporter, dose response, cell-based, HEK293, luciferase, cherry-pick (AID 588343); type: functional; details: Homo sapiens
Aminopeptidase N = biological target: T2, Aminopeptidase N (Plasmodium falciparum FcB1/Columbia, UniProt O96935); assay: P. falciparum M1AAP inhibitors, biochemical, fluorogenic H-Leu-NHMec substrate, 1536-well (AID 1445); design: species or system Plasmodium falciparum 3D7, 3D7
T2 sequence (O96935 whole entry): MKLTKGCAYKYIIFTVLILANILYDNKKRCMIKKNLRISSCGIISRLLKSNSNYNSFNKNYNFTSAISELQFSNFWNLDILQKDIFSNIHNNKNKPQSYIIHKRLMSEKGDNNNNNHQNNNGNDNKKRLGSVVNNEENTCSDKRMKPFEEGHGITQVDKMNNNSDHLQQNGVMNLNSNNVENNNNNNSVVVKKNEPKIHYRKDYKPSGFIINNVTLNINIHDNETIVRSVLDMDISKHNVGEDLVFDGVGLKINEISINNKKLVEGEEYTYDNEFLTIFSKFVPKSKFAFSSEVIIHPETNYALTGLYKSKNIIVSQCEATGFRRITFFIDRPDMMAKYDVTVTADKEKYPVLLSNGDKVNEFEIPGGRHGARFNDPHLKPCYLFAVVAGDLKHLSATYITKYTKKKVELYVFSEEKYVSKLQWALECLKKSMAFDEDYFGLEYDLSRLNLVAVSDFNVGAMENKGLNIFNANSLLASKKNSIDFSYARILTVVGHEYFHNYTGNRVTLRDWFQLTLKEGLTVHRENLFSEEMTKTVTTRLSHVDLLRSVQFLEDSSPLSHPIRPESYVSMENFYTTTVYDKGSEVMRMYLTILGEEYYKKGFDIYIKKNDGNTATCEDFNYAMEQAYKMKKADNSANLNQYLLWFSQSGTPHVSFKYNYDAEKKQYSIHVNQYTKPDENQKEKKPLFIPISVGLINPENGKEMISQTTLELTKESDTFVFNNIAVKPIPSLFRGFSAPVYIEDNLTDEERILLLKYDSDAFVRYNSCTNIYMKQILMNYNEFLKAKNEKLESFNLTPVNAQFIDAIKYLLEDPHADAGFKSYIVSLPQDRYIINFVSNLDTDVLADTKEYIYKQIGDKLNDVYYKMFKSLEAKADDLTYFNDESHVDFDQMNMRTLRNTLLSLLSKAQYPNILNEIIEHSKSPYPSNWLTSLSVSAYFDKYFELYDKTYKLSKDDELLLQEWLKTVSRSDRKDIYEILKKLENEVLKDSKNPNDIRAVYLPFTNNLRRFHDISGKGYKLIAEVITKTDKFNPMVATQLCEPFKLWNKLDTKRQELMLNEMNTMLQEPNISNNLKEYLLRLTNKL

Vero [6] = assay: cells; type: functional, cell-based, Chlorocebus sabaeus; details: Chlorocebus sabaeus, Vero
[7] = biological target: Heat shock protein HSP 90-alpha (Homo sapiens, UniProt P07900); type: functional, organism-based
Nonstructural protein 1 = Nonstructural protein 1 (Influenza A virus, UniProt Q194T2); type: functional, Influenza A virus (A/California/07/2009(H1N1))
Vero [8] = assay: cells; type: functional, Chlorocebus sabaeus; details: Chlorocebus sabaeus, Vero
[9] = inhibitors of intracellular T. cruzi replication, confirmation, NIH3T3 host cells, beta-gal luminescence (AID 2044); type: functional, cell-based;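 also: intracellular parasites grown in NIH/3T3 mouse fibroblasts as host cells; luminescent beta-galactosidase reporter signal from transgenic T. cruzi replicating inside host cells; inhibitors lower the luminescence signal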
[10] = biological target: T3, Carboxy-terminal domain RNA polymerase II polypeptide A small phosphatase 1 (Homo sapiens, UniProt Q9GZU7); assay: inhibitors of CTDSP1, concentration-response testing, biochemical assay, absorbance-based, actives from ultra-high-throughput screening (AID 540297); type: functional
T3 sequence (Q9GZU7 whole entry): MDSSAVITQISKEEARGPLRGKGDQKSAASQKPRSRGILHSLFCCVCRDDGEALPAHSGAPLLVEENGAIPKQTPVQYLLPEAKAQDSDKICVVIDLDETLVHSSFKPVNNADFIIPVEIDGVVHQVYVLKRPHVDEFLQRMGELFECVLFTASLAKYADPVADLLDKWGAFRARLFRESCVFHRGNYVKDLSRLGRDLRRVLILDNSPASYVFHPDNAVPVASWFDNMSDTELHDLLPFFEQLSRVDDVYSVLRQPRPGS

[11] = cytotoxicity toward NIH3T3 fibroblasts, dose response, counter-screen, cell-based, ATP luminescence, mouse fibroblasts (AID 2010); type: functional;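 also: cells exposed to compound for about 90 hours before reading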
[12] = biological target: T4, Sentrin-specific protease 8 (Homo sapiens, UniProt Q96LD8); type: functional;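 also: luminescence read-out of SENP8 inhibition, dose-response confirmation following an ultra-high-throughput screen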
T4 sequence (Q96LD8 whole entry): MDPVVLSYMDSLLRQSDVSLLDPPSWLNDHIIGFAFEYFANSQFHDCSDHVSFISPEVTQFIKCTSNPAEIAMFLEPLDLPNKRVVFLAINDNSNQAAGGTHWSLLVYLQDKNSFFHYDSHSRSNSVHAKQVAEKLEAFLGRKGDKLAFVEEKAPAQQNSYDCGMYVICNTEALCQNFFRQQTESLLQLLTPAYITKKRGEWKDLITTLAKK

[13] = biological target: T5, Sentrin-specific protease 7 (Homo sapiens, UniProt Q9BQF6); type: functional;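 also: Luminescence-based dose-response confirmation of ultra-high-throughput screening hits, measuring inhibition of SENP7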
T5 sequence (Q9BQF6 whole entry): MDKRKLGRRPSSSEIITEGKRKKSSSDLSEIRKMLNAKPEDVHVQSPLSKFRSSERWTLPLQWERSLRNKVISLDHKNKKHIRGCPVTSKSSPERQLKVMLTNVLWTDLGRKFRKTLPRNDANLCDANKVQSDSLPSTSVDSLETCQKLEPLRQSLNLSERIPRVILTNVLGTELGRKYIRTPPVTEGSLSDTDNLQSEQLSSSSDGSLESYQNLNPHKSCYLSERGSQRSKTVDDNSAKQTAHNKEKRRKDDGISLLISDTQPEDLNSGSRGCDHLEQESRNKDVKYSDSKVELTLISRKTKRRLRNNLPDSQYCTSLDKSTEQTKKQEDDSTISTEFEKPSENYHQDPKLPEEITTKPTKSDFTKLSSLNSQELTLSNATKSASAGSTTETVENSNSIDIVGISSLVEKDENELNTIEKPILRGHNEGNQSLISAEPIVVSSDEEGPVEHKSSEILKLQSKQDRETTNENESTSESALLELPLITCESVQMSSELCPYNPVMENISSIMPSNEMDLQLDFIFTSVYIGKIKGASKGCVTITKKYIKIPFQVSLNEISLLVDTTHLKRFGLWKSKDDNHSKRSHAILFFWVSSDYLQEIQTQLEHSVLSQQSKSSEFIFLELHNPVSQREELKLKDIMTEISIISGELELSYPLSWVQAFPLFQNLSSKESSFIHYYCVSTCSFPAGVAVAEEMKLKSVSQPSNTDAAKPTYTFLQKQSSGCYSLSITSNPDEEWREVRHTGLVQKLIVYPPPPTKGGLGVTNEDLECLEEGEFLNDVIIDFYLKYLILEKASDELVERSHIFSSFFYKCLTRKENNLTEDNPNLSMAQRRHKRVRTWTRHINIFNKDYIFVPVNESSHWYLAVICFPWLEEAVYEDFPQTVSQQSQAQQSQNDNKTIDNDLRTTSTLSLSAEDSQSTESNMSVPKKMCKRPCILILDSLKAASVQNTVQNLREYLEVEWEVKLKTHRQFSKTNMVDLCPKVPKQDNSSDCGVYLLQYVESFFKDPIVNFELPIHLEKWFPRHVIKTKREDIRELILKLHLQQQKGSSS

[14] = biological target: T6, Sentrin-specific protease 6 (Homo sapiens, UniProt Q9GZR1); type: functional;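 also: Luminescence-based dose-response confirmatory assay of SENP6 inhibition, following up an ultra-high-throughput screen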
T6 sequence (Q9GZR1 whole entry): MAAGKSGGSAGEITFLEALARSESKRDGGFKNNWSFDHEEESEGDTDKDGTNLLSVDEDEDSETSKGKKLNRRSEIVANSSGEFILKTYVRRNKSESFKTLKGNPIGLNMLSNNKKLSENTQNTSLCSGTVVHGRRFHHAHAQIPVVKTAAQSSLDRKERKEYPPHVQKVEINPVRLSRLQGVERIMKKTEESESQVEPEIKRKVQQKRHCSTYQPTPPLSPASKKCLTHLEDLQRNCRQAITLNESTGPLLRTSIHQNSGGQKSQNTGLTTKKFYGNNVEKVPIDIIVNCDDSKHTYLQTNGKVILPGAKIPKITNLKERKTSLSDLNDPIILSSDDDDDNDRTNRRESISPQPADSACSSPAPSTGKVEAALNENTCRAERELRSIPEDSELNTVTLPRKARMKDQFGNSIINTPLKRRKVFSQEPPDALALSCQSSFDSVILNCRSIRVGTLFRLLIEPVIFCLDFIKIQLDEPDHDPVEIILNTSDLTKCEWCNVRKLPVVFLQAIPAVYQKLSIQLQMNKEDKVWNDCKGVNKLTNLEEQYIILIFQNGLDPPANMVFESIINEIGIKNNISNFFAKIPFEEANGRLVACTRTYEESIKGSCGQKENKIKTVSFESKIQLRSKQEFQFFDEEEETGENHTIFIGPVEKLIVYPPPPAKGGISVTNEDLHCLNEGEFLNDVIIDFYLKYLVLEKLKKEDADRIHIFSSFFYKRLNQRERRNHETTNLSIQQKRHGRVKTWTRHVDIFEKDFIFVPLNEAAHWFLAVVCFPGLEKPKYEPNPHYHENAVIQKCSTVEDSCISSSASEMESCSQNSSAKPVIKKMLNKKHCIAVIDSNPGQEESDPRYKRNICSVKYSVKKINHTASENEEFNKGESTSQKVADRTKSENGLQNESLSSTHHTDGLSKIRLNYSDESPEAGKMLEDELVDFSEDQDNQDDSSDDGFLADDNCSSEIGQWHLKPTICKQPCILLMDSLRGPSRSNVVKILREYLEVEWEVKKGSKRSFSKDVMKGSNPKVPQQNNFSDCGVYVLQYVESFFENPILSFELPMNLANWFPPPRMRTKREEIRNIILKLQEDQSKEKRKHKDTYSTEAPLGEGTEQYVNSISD

Sequence of Glucose-6-phosphate 1-dehydrogenase (P11413 whole entry): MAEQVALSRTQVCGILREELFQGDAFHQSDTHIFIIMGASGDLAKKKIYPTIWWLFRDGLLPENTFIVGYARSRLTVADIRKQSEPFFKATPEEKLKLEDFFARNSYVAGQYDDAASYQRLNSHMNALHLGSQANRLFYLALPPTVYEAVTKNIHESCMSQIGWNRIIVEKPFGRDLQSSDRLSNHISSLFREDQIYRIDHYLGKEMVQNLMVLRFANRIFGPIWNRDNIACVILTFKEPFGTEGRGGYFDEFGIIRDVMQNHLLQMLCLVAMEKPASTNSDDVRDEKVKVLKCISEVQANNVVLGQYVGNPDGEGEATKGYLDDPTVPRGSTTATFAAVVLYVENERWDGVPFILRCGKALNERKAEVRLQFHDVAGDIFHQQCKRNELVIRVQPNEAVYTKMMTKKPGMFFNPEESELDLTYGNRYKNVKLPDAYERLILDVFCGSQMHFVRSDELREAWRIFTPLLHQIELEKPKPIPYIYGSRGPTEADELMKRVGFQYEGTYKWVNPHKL
Sequence of Nonstructural protein 1 (Q194T2 whole entry): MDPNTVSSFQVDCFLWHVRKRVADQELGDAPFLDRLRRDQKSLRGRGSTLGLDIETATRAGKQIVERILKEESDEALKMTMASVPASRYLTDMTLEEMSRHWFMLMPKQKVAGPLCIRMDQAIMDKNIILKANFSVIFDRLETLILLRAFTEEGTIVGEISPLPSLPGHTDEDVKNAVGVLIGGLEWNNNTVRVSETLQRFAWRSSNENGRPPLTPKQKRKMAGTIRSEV

COc1cccc(CNc2ccc3[nH]c(O)nc3c2)c1OCc1ccc(F)cc1
IC50 [1]: > 80 µM (inactive)

CN1CCC2(CC1)Nc1nc(SCc3ccc(Cl)cc3)nn1C1=C2CN(C)CC1
EC50 [2]: > 20 µM (not active)
EC50 [3]: > 53 µM (inactive)
IC50 [4]: > 47.1 µM (inactive)
EC50 [5]: > 20 µM (not active)

COc1ccc(C=C2OC(O)=C(C(C)=O)C2=O)cc1
AC50 (HEK293): 6.16 µM (active)

O=C(O)c1cccc(NC(S)=NC(NC(=O)c2ccccc2[N+](=O)[O-])C(Cl)(Cl)Cl)c1 (centres undefined)
IC50 (Aminopeptidase N): 58.6 µM (active)

CC(=NNc1nc2ccccc2o1)c1ncccn1
AC50 (HEK293): 1.23 µM (active)
IC50 (Vero [6]): > 25 µM (active)
AC50 [7]: 1.97 µM (active)
IC50 (Nonstructural protein 1): 0.739 µM (active)
CC50 (Vero [8]): 1.34 µM (active)

CC1=NN(c2nc(-c3ccc(C)cc3)cs2)C(=O)C1N=Nc1ccccc1O (centres undefined)
EC50 [9]: 1.63 µM (active)
IC50 (Aminopeptidase N): 3.37 µM (active)
IC50 [10]: 3.69 µM (active)
EC50 [11]: > 60 µM (not active)

CC(=O)Nc1nc(COc2ccc3ccccc3c2)cs1
IC50 [12]: 9.93 µM (active)
IC50 [13]: 5.88 µM (active)
IC50 [14]: 8.61 µM (active)

COc1ccc(CCn2c(NN=C3CCCC3)nc3c2c(=O)[nH]c(=O)n3C)cc1
IC50 [1]: > 80 µM (inactive)

CCn1c([N+](=O)[O-])nc2c1c(=O)[nH]c(=O)n2C
IC50 [1]: > 80 µM (inactive)

CCOc1ccc(NC(=O)c2ccc(N3CC4CC(C3)c3cccc(=O)n3C4)c(NC(=O)c3cccnc3)c2)cc1 (centres undefined)
AC50 (HEK293): > 350 µM (inactive)

CCCN1C(=O)/C(=C/c2c(N3CCNC(=O)C3CC(=O)OC)nc3c(C)cccn3c2=O)SC1=S (centres undefined)
IC50 (Aminopeptidase N): 68.1 µM (active)

COc1cc(/C=C(/C#N)c2nc3ccccc3[nH]2)ccc1OCc1ccc(C(=O)O)o1
IC50 (Aminopeptidase N): 52.1 µM (active)

— ChEMBL document CHEMBL1201862, “PubChem BioAssay data set” (2004)
